US4124710A, “Acetamidoxime derivatives and use thereof” (priority 1976, dated 1978)
Where a name gives a salt, the structure may show the parent alone.

What was measured:
[1] = tested on: male rats in which chronic renal hypertension had been induced; test: Fall in arterial pressure in rats rendered hypertensive by the GROLLMAN method (chronic renal hypertension); format: in vivo, rat; settings: intragastric; for Fall in A.P.: 25 mg/kg, measured before and 1-6 hours after administration
Method: The first test was carried out on male rats weighing about 120g in which chronic renal hypertension had been induced by the Grollman technique [Proc. Soc. exp.
According to this technique, the animals are anaesthetized with ether and one kidney is displaced from its site without being detached from the body, the suprarenal gland having been first liberated from the kidney but otherwise left intact. The kidney is then bound with twine in the form of a figure eight, just tightly enough to alter slightly the ellipsoid shape of the organ. Ten days later, the other kidney is completely removed together with its suprarenal gland.
Arterial pressure was measured immediately before and 1,2,3,4,5 and 6 hours after administration.

Rat = test: Acute toxicity in rats; format: in vivo; settings: 12 days observation
Method: (§1) Finally, acute toxicity trials were carried out on rats and mice which were kept under observation for 12 days following one single administration.

[2] = tested on: hypertensive effect of acetylcholine in dog; test: Ganglioplegic activity: hypertensive effect of acetylcholine in anaesthetized atropinized dog
[3] = tested on: rats with neurogenic hypertension; test: Neurogenic hypertension (technique of KRIEGER and IMBS); format: in vivo, rat; settings: intragastric
Method: (§2) All of these tests were performeed on rats which were in a state of hypertension. Each test was divided into two series. In the first series, one single dose of the product under study was administered by intragastric route to each animal and the arterial pressure of the latter was measured every hour for six hours after administration. In the second series the product under study was given by the same route every day for eleven consecutive days and arterial pressure was measured daily throughout this period. The amount of product administered varied from one animal to another.
(4) Neurogenic hypertension
This test was performed in accordance with the technique of KRIEGER and IMBS (Circul. Res. 15, 511, 1964 and C.R. Soc. Biol. 162, 778, 1968).
Male rats weighing from 200 to 250g were anaesthetized with ether and 0.5mg of atropine sulphate was administered to them intraperitoneally.
The rats were fixed in a supine position and an incision was made in the front of the neck to expose the neuromuscular bundle comprising the sumpathetic and vagus nerve and the common carotid arteries.
The vagus nerves and the carotid arteries were then carefully isolated while one centimeter was cut out of the sympathetic nerves. […] The area in which the carotids divide was exposed by pulling aside the appropriate neck muscles (sternocleidomastoideus and omohyoideus). The vessels thus liberated were painted with 10% phenol in ethanol. In this way, complete sympathetic denervation was obtained.
A marked rise in arterial pressure was obtained after 5 to 8 days.

Mouse = test: Acute toxicity in mice; format: in vivo; settings: 12 days observation
Method: as §1

[4] = tested on: nictitating membrane of an anaesthetized cat; test: Ganglioplegic activity: contractions of the nictitating membrane of anaesthetized cat; format: in vivo; settings: two intravenous doses of 5 mg/kg
Method: (1) The arterial pressure and the tonus of the nictitating membrane of an anaesthetized cat was first noted, after which the contractile reaction of the membrane to an intravenous injection of adrenaline and to electric stimulation of the preganglionic fibre of the cervical sympathetic nerve was tested.

[5] = tested on: rats with genetic hypertension; test: Genetic hypertension (technique of OKAMOTO and AOKI); format: in vivo, rat; settings: for Maximum fall in A.P.: intragastric
Method: as §2
This test was performed in accordance with the technique of OKAMOTO and AOKI (Jap. Circul. J., 27, 282, 1963), using male rats belonging to a race which has been specially bred to produce animals having high blood pressure.

male albino rats = test: Volumetric urinary excretion (technique of LIPSCHITZ et al.); format: in vivo, rat; settings: intragastric, 6 hours, % of volume of saline administered
Method: 1 -- Volumetric urinary excretion
This test was performed according to the technique of LIPSCHITZ et al. (J. Pharmacol. exp. Therap. 79, 97, 1943), by using groups of 20 male albino rats weighing from 150 to 200g which had been deprived of food and drink for 18 hours.
The substance to be tested was given by intragastric route immediately after the intragastric administration of 50 ml/kg of a 9°/°° solution of NaCl.
A control group also of 20 rats only received the saline solution. The total amount of urine excreted during the 6 hours following administration was collected and measured.

[6] = tested on: rats with saline hypertension; test: Saline hypertension (technique of DAHL, KNUDSEN, HEINE and LEITL); format: in vivo, rat; settings: intragastric
Method: as §2
This test was performed in accordance with the technique of DAHL, KNUDSEN, HEINE and LEITL.
Male rats weighing 55 ± 5g were fed on food containing 8% of NaCl but which was otherwise normal.
After six weeks of this diet, arterial pressure had risen to about 180 mm.Hg.

[7] = tested on: experimentally induced hypertension; test: Experimentally induced hypertension, general statements on anti-hypertensive activity; settings: rat, in vivo
Method: as §2

[8] = tested on: rats with hypertension of endocrine origin; test: Hypertension of endocrine origin (DOCA; technique of STANTON and WHITE); format: in vivo, rat; settings: intragastric
Method: as §2
(2) Hypertension of endocrine origin
This test was performed in accordance with the technique of STANTON and WHITE (Arch. Int. Pharmacodyn. 154, 351, 1965).
Female rats weighing 90 ± 10g were anaesthetized with ether and hypertension was produced by ablation of one kidney and the corresponding adrenal gland, after which a dose of 50 mg/kg of desoxycorticosterone acetate (DOCA) was administered subcutaneously five days a week over a period of four weeks. Throughout this period the drinking-water given to the rats contained 1% of NaCl. This was replaced by ordinary tap-water when administration of the desoxycorticosterone ceased.
Under these circumstances, arterial pressure rose to about 200 mm.Hg.

albino male rats = test: Ionic ratio in urinary excretion (technique of AMBROSILI et al.); format: in vivo, rat; settings: for Na^+ /K^+ Ratio / K^+ excretion / Na^+ excretion / Urinary excretion: intragastric, 4 hours; for Na^+ /K^+ Ratio: control 1; for K^+ excretion: control 18.5; for Na^+ excretion: control 27.3; for Urinary excretion: control 40
Method: 2 -- Ionic ratio in urinary excretion
This test was performed according to the technique of AMBROSILI et al. (Minerva Nepol. 11,56, 1964).
The substance to be tested was given by intragastric route immediately after the intragastric administration of 50 ml/kg of distilled water to groups of 20 albino male rats weighing 140 { 10g which had been fasting for 18 hours.
A control group, also comprising 20 animals, only received the distilled water.
The total amount of urine excreted during the 4 hours following administration was collected and measured and the total Na^+ and K^+ ion excretion values determined.
These values were then converted to millieequivalents per liter (mEq/l.) in order to obtain the correct Na^+ and K^+ ion excretion figures independently of the increase in the amount of urine.
The ionic ratio was obtained according to the following formula: [formula]

[9] = tested on: experimentally induced hypertension; settings: rat, in vivo; cited from earlier work

Structure (SMILES): NS(=O)(=O)c1cc2c(cc1Cl)NCNS2(=O)=O [hydrochlorothiazide, reference compound]
- activity in this test ([1]; 200 mg/kg): inactive

Structure (SMILES): CCCCN(CCCC)CCNC(Cc1c(CC)oc2ccccc12)=NO [2-(2-Ethyl-3-benzofuranyl)-N-(2-di-n-butylamine-ethyl)-acetamidoxime]
- Fall in A.P. [1]: 27 mm.Hg

Structure (SMILES): Cc1oc2ccccc2c1CC(=NO)NCCN1CCOCC1 [2-(2-Methyl-3-benzofuranyl)-N-(2-morpholino-ethyl)-acetamidoxime]
- Fall in A.P. [1]: 25 mm.Hg

Structure (SMILES): CCc1oc2ccccc2c1CC(=NO)NCCN1CCOCC1 [L 9552, 2-(2-ethyl-3-benzofuranyl)-N-(2-morpholino-ethyl)-acetamidoxime]
- LD0 (Rat; intragastric): 1,100 mg/kg
- LD95 (Rat; intragastric): 2,500 mg/kg
- LD0 (Rat; intraperitoneal): 80 mg/kg
- LD95 (Rat; intraperitoneal): 350 mg/kg
- effect on the hypertensive effect of acetylcholine ([2]; 5 mg/kg intravenous, 1 mg/kg acetylcholine): did not alter the hypertensive effect
- Maximum fall in A.P. ([3]; daily doses (11 days) 10 mg/kg): 17 mm.Hg
- Maximum fall in A.P. ([3]; daily doses (11 days) 25 mg/kg): 35 mm.Hg
- Maximum fall in A.P. ([3]; single dose 10 mg/kg): 18 mm.Hg
- Maximum fall in A.P. ([3]; single dose 25 mg/kg): 37 mm.Hg
- Maximum fall in A.P. ([3]; single dose 50 mg/kg): 56 mm.Hg
- LD0 (Mouse; intragastric): 250 mg/kg
- LD95 (Mouse; intragastric): 1,250 mg/kg
- LD0 (Mouse; intraperitoneal): 30 mg/kg
- LD95 (Mouse; intraperitoneal): 110 mg/kg
- effect on intensity of contractions of the nictitating membrane (adrenaline, electric stimulation) [4]: did not modify the intensity of the contractions of the membrane
- Fall in A.P. [1]: 36 mm.Hg
- Maximum fall in A.P. ([1]; daily doses (11 days) 10 mg/kg): 18 mm.Hg
- Maximum fall in A.P. ([1]; daily doses (11 days) 25 mg/kg): 32 mm.Hg
- Maximum fall in A.P. ([1]; daily doses (11 days) 50 mg/kg): 47 mm.Hg
- Maximum fall in A.P. ([1]; single dose 10 mg/kg): 14 mm.Hg
- Maximum fall in A.P. ([1]; single dose 25 mg/kg): 36 mm.Hg
- Maximum fall in A.P. ([1]; single dose 50 mg/kg): 55 mm.Hg
- Maximum fall in A.P. ([5]; daily doses (11 days) 5 mg/kg): 0 mm.Hg
- Maximum fall in A.P. ([5]; daily doses (11 days) 10 mg/kg): 26 mm.Hg
- Maximum fall in A.P. ([5]; daily doses (11 days) 20 mg/kg): 47 mm.Hg
- activity in genetic hypertension ([5]; rat, in vivo): especially active
- Maximum fall in A.P. ([5]; single dose 5 mg/kg): 16 mm.Hg
- Maximum fall in A.P. ([5]; single dose 10 mg/kg): 35 mm.Hg
- Maximum fall in A.P. ([5]; single dose 20 mg/kg): 52 mm.Hg
- Urinary excretion (male albino rats; 10 mg/kg): 84%
- Urinary excretion (male albino rats; 20 mg/kg): 102%
- Urinary excretion (male albino rats; 50 mg/kg): 118%
- Urinary excretion (male albino rats; 100 mg/kg): 138%
- Urinary excretion (male albino rats; 200 mg/kg): 165%
- Maximum fall in A.P. ([6]; daily doses (11 days) 10 mg/kg): 13 mm.Hg
- Maximum fall in A.P. ([6]; daily doses (11 days) 25 mg/kg): 26 mm.Hg
- Maximum fall in A.P. ([6]; daily doses (11 days) 50 mg/kg): 53 mm.Hg
- Maximum fall in A.P. ([6]; single dose 10 mg/kg): 14 mm.Hg
- Maximum fall in A.P. ([6]; single dose 25 mg/kg): 27 mm.Hg
- Maximum fall in A.P. ([6]; single dose 50 mg/kg): 54 mm.Hg
- activity in the five types of experimentally induced hypertension [7]: active
- Maximum fall in A.P. ([8]; daily doses (11 days) 25 mg/kg): 15 mm.Hg
- Maximum fall in A.P. ([8]; daily doses (11 days) 50 mg/kg): 30 mm.Hg
- Maximum fall in A.P. ([8]; daily doses (11 days) 100 mg/kg): 49 mm.Hg
- Maximum fall in A.P. ([8]; single dose 25 mg/kg): 18 mm.Hg
- Maximum fall in A.P. ([8]; single dose 50 mg/kg): 26 mm.Hg
- Maximum fall in A.P. ([8]; single dose 100 mg/kg): 45 mm.Hg
- Na^+ /K^+ Ratio (albino male rats; 10 mg/kg): 1.09
- K^+ excretion (albino male rats; 10 mg/kg): 15.3 mEq/l.
- Na^+ excretion (albino male rats; 10 mg/kg): 24.8 mEq/l.
- Urinary excretion (albino male rats; 10 mg/kg): 55%
- Na^+ /K^+ Ratio (albino male rats; 20 mg/kg): 1.66
- K^+ excretion (albino male rats; 20 mg/kg): 17.5 mEq/l.
- Na^+ excretion (albino male rats; 20 mg/kg): 43.0 mEq/l.
- Urinary excretion (albino male rats; 20 mg/kg): 80%
- Na^+ /K^+ Ratio (albino male rats; 50 mg/kg): 2.50
- K^+ excretion (albino male rats; 50 mg/kg): 15.0 mEq/l.
- Na^+ excretion (albino male rats; 50 mg/kg): 55.6 mEq/l.
- Urinary excretion (albino male rats; 50 mg/kg): 95%
- Na^+ /K^+ Ratio (albino male rats; 100 mg/kg): 3.37
- K^+ excretion (albino male rats; 100 mg/kg): 14.3 mEq/l.
- Na^+ excretion (albino male rats; 100 mg/kg): 71.3 mEq/l.
- Urinary excretion (albino male rats; 100 mg/kg): 137%
- Na^+ /K^+ Ratio (albino male rats; 200 mg/kg): 3.34
- K^+ excretion (albino male rats; 200 mg/kg): 15.8 mEq/l.
- Na^+ excretion (albino male rats; 200 mg/kg): 78.0 mEq/l.
- Urinary excretion (albino male rats; 200 mg/kg): 124%
- sodium-excretion index (albino male rats; rat, in vivo): very favourable

Structure (SMILES): CCc1oc2ccc(Cl)cc2c1CC(=NO)NCCN1CCOCC1 [2-(2-Ethyl-5-chloro-3-benzofuranyl)-N-(2-morpholino-ethyl)-acetamidoxime]
- Fall in A.P. [1]: 21 mm.Hg

Structure (SMILES): CCCN1CCN(C(=N)Cc2c(CC)oc3ccccc23)CC1 [2-(2-ethyl-3-benzofuranyl)-N,N-(3-n-propyl-3-aza-pentamethylene)-acetamidine dihydrochloride, reference compound]
- activity in the treatment of experimentally induced hypertension [9]: pharmacologically active
- fall in arterial pressure ([1]; 50 mg/kg): 14 mm.Hg
- fall in arterial pressure ([1]; 200 mg/kg): 24 mm.Hg

Structure (SMILES): C[N+]1(CC(=O)c2ccc(-c3ccccc3)cc2)[C@@H]2CC[C@H]1C[C@@H](OC(=O)[C@H](CO)c1ccccc1)C2 (stereo partly shown) [phenthonium, reference compound]
- effect on the hypertensive effect of acetylcholine ([2]; dose not stated, ganglioplegic substance): annulled the hypertensive effect of acetylcholine
